Source: PMC3042041 (ACS chemical biology, 2010)
pIC50: −log10 of the molar value.

Biological target: T1, REV-ERBα (Homo sapiens, UniProt P20393)
T1 sequence (P20393 1-614): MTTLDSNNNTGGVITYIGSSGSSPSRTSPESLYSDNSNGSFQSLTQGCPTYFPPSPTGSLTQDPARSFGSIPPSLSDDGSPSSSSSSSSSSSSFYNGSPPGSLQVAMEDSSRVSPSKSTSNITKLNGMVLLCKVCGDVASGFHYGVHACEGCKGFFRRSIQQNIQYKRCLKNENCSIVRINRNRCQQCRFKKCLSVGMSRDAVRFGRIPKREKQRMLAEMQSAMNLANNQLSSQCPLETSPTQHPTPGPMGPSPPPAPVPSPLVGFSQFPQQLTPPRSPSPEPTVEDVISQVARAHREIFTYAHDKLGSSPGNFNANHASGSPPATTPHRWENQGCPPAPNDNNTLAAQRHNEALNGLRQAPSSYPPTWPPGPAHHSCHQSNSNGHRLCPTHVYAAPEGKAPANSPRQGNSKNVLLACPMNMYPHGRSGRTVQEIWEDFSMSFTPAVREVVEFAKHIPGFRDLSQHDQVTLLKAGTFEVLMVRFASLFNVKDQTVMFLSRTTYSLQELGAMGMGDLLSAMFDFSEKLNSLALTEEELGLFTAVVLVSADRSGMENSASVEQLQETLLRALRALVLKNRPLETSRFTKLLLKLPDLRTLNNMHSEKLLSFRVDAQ
Assay: Bmal1-luciferase / REV-ERBα cotransfection reporter assay in HEK293 cells
Format: cell-based

SMILES: CC(C)(C)OC(=O)CN(Cc1ccc(Cl)cc1)Cc1ccc([N+](=O)[O-])s1 [GSK4112]
- pIC50: 5.64
